Laboratory results published in PubChem BioAssay AID248 (DTP/NCI, 2004).
Several values for one entry are separate records, joined by “and”; a condition that tells them apart may be missing. Identical values can stand only once. Inconclusive results and toxic doses are left out.

System: L1210 leukemia ip in BDF1 mice, survival T/C
Assay: NCI In Vivo Anticancer Drug Screen. Data for tumor model L1210 Leukemia (intraperitoneal) in B6D2F1 (BDF1) mice
Conditions: endpoint: mean survival time, higher = longer survival
Protocol: The antitumor activity of compounds was measured in mice bearing transplantable tumors. Survival or tumor size were measured and the results are expressed as the measurement made in the treated group (T) divided by the measurement made in the vehicle treated control group (C). The tumor model used in this assay is L1210 Leukemia (intraperitoneal) in B6D2F1 (BDF1) mice

[1] = dose: 100.0 mg/kg/injection, schedule: Q04DX002 (ip), vehicle: Klucel (hydroxypropylcellulose) (HPC)
[2] = dose: 200.0 mg/kg/injection, schedule: Q04DX002 (ip), vehicle: Klucel (hydroxypropylcellulose) (HPC)
[3] = dose: 100.0 mg/kg/injection, schedule: Q01DX001 (ip), vehicle: gum acacia
[4] = dose: 200.0 mg/kg/injection, schedule: Q01DX001 (ip), vehicle: gum acacia
[5] = dose: 400.0 mg/kg/injection, schedule: Q01DX001 (ip), vehicle: gum acacia

COc1cc([N+](=O)[O-])ccc1NC(=O)Oc1ccc(-c2ccccc2)cc1Cl
T/C (dose: 100.0 mg/kg/injection, schedule: Q01DX009 (ip), vehicle: Klucel (hydroxypropylcellulose) (HPC)): 93 % of control | T/C (dose: 200.0 mg/kg/injection, schedule: Q01DX009 (ip), vehicle: Klucel (hydroxypropylcellulose) (HPC)): 96 % of control | T/C (dose: 400.0 mg/kg/injection, schedule: Q01DX009 (ip), vehicle: Klucel (hydroxypropylcellulose) (HPC)): 95 % of control

CC(=O)Nc1cccc(OC(=O)Nc2ccc(F)c(Cl)c2)c1
T/C [1]: 96 % of control | T/C [2]: 89 % of control | T/C (dose: 400.0 mg/kg/injection, schedule: Q04DX002 (ip), vehicle: Klucel (hydroxypropylcellulose) (HPC)): 121 % of control

O=C(Nc1ccc(S(=O)(=O)F)cc1)Oc1ccc([N+](=O)[O-])cc1
T/C (dose: 25.0 mg/kg/injection, schedule: Q01DX009 (ip), vehicle: saline with Tween-80): 92 % of control and 93 % of control | T/C (dose: 50.0 mg/kg/injection, schedule: Q01DX001 (ip), vehicle: saline with Tween-80): 103 % of control | T/C (dose: 50.0 mg/kg/injection, schedule: Q01DX009 (ip), vehicle: saline with Tween-80): 92 % of control and 89 % of control | T/C (dose: 100.0 mg/kg/injection, schedule: Q01DX001 (ip), vehicle: saline with Tween-80): 105 % of control | T/C (dose: 100.0 mg/kg/injection, schedule: Q04DX002 (ip), vehicle: saline with Tween-80): 95 % of control | T/C (dose: 100.0 mg/kg/injection, schedule: Q04DX003 (ip), vehicle: saline with Tween-80): 93 % of control | T/C (dose: 200.0 mg/kg/injection, schedule: Q01DX001 (ip), vehicle: saline with Tween-80): 97 % of control | T/C (dose: 200.0 mg/kg/injection, schedule: Q01DX009 (ip), vehicle: saline with Tween-80): 98 % of control | T/C (dose: 200.0 mg/kg/injection, schedule: Q04DX002 (ip), vehicle: saline with Tween-80): 96 % of control | T/C (dose: 200.0 mg/kg/injection, schedule: Q04DX003 (ip), vehicle: saline with Tween-80): 98 % of control | T/C (dose: 400.0 mg/kg/injection, schedule: Q01DX001 (ip), vehicle: saline with Tween-80): 105 % of control | T/C (dose: 400.0 mg/kg/injection, schedule: Q04DX002 (ip), vehicle: saline with Tween-80): 88 % of control | T/C (dose: 400.0 mg/kg/injection, schedule: Q04DX003 (ip), vehicle: saline with Tween-80): 103 % of control

CC1C(=O)OC2C1CCC1(C)C3(C)C(=O)C=CC213 (configuration not stated)
T/C (dose: 75.0 mg/kg/injection, schedule: Q01DX001 (ip), vehicle: saline): 97 % of control | T/C (dose: 150.0 mg/kg/injection, schedule: Q01DX001 (ip), vehicle: saline): 106 % of control | T/C (dose: 300.0 mg/kg/injection, schedule: Q01DX001 (ip), vehicle: saline): 95 % of control

O=C(CN1CC1)Nc1ccc(NC(=O)CN2CC2)cc1
T/C (dose: 1.5 mg/kg/injection, schedule: Q01DX009 (ip), vehicle: carboxymethylcellulose (CMC)): 116 % of control and 117 % of control | T/C (dose: 7.3 mg/kg/injection, schedule: Q01DX001 (ip), vehicle: carboxymethylcellulose (CMC)): 116 % of control | T/C (dose: 11.0 mg/kg/injection, schedule: Q01DX009 (ip), vehicle: carboxymethylcellulose (CMC)): 168 % of control | T/C (dose: 11.1 mg/kg/injection, schedule: Q01DX009 (ip), vehicle: carboxymethylcellulose (CMC)): 161 % of control | T/C (dose: 16.6 mg/kg/injection, schedule: Q01DX009 (ip), vehicle: carboxymethylcellulose (CMC)): 96 % of control and 211 % of control | T/C (dose: 25.0 mg/kg/injection, schedule: Q01DX001 (ip), vehicle: carboxymethylcellulose (CMC)): 152 % of control and 160 % of control | T/C (dose: 25.0 mg/kg/injection, schedule: Q01DX009 (ip), vehicle: carboxymethylcellulose (CMC)): 103 % of control | T/C (dose: 37.5 mg/kg/injection, schedule: Q01DX001 (ip), vehicle: carboxymethylcellulose (CMC)): 163 % of control | T/C (dose: 50.0 mg/kg/injection, schedule: Q01DX001 (ip), vehicle: carboxymethylcellulose (CMC)): 151 % of control

COc1ccc(C)cc1NC(=O)OCCSc1ccc(Cl)cc1
T/C (dose: 50.0 mg/kg/injection, schedule: Q01DX009 (ip), vehicle: gum acacia): 97 % of control and 102 % of control | T/C [3]: 95 % of control and 97 % of control | T/C (dose: 100.0 mg/kg/injection, schedule: Q04DX002 (ip), vehicle: gum acacia): 97 % of control and 91 % of control | T/C (dose: 100.0 mg/kg/injection, schedule: Q04DX003 (ip), vehicle: gum acacia): 96 % of control and 97 % of control | T/C [4]: 95 % of control and 100 % of control | T/C (dose: 200.0 mg/kg/injection, schedule: Q04DX002 (ip), vehicle: gum acacia): 93 % of control | T/C (dose: 200.0 mg/kg/injection, schedule: Q04DX003 (ip), vehicle: gum acacia): 92 % of control and 96 % of control | T/C [5]: 94 % of control and 97 % of control | T/C (dose: 400.0 mg/kg/injection, schedule: Q01DX009 (ip), vehicle: gum acacia): 88 % of control and 90 % of control | T/C (dose: 400.0 mg/kg/injection, schedule: Q04DX002 (ip), vehicle: gum acacia): 98 % of control and 90 % of control | T/C (dose: 400.0 mg/kg/injection, schedule: Q04DX003 (ip), vehicle: gum acacia): 100 % of control and 101 % of control

O=C(Nc1ccc([N+](=O)[O-])cc1Cl)Oc1ccc(Cl)cc1Cl
T/C (dose: 100.0 mg/kg/injection, schedule: Q01DX001 (ip), vehicle: carboxymethylcellulose (CMC)): 97 % of control | T/C (dose: 100.0 mg/kg/injection, schedule: Q01DX009 (ip), vehicle: carboxymethylcellulose (CMC)): 109 % of control and 91 % of control | T/C (dose: 100.0 mg/kg/injection, schedule: Q04DX002 (ip), vehicle: carboxymethylcellulose (CMC)): 94 % of control and 90 % of control | T/C (dose: 100.0 mg/kg/injection, schedule: Q04DX003 (ip), vehicle: carboxymethylcellulose (CMC)): 102 % of control | T/C (dose: 200.0 mg/kg/injection, schedule: Q01DX001 (ip), vehicle: carboxymethylcellulose (CMC)): 97 % of control | T/C (dose: 200.0 mg/kg/injection, schedule: Q01DX009 (ip), vehicle: carboxymethylcellulose (CMC)): 102 % of control and 91 % of control | T/C (dose: 200.0 mg/kg/injection, schedule: Q04DX002 (ip), vehicle: carboxymethylcellulose (CMC)): 93 % of control and 110 % of control | T/C (dose: 200.0 mg/kg/injection, schedule: Q04DX003 (ip), vehicle: carboxymethylcellulose (CMC)): 94 % of control | T/C (dose: 400.0 mg/kg/injection, schedule: Q01DX001 (ip), vehicle: carboxymethylcellulose (CMC)): 98 % of control | T/C (dose: 400.0 mg/kg/injection, schedule: Q01DX009 (ip), vehicle: carboxymethylcellulose (CMC)): 98 % of control | T/C (dose: 400.0 mg/kg/injection, schedule: Q04DX002 (ip), vehicle: carboxymethylcellulose (CMC)): 93 % of control and 105 % of control | T/C (dose: 400.0 mg/kg/injection, schedule: Q04DX003 (ip), vehicle: carboxymethylcellulose (CMC)): 98 % of control

CC(=O)NC(C)C(N)=O (configuration not stated)
T/C (dose: 100.0 mg/kg/injection, schedule: Q04DX002 (ip), vehicle: saline): 108 % of control | T/C (dose: 200.0 mg/kg/injection, schedule: Q04DX002 (ip), vehicle: saline): 105 % of control | T/C (dose: 400.0 mg/kg/injection, schedule: Q04DX002 (ip), vehicle: saline): 96 % of control

O=C(COc1cccc(Cl)c1)NCc1cccc(NC(=O)c2cccc(S(=O)(=O)F)c2)c1
T/C [3]: 97 % of control | T/C [4]: 93 % of control | T/C [5]: 98 % of control

N#CC(Cl)(Cl)CCl
T/C (dose: 12.0 mg/kg/injection, schedule: Q04DX003 (ip), vehicle: saline): 105 % of control | T/C (dose: 25.0 mg/kg/injection, schedule: Q04DX003 (ip), vehicle: saline): 96 % of control | T/C (dose: 50.0 mg/kg/injection, schedule: Q04DX003 (ip), vehicle: saline): 96 % of control | T/C (dose: 100.0 mg/kg/injection, schedule: Q04DX003 (ip), vehicle: saline): 103 % of control and 105 % of control

CC(C)N(C=O)c1ccc(C(=O)O)cc1
T/C (dose: 100.0 mg/kg/injection, schedule: Q01DX001 (ip), vehicle: Klucel (hydroxypropylcellulose) (HPC)): 93 % of control | T/C (dose: 100.0 mg/kg/injection, schedule: Q04DX003 (ip), vehicle: Klucel (hydroxypropylcellulose) (HPC)): 108 % of control | T/C (dose: 200.0 mg/kg/injection, schedule: Q01DX001 (ip), vehicle: Klucel (hydroxypropylcellulose) (HPC)): 93 % of control | T/C (dose: 200.0 mg/kg/injection, schedule: Q04DX003 (ip), vehicle: Klucel (hydroxypropylcellulose) (HPC)): 97 % of control | T/C (dose: 400.0 mg/kg/injection, schedule: Q01DX001 (ip), vehicle: Klucel (hydroxypropylcellulose) (HPC)): 86 % of control | T/C (dose: 400.0 mg/kg/injection, schedule: Q04DX003 (ip), vehicle: Klucel (hydroxypropylcellulose) (HPC)): 89 % of control

O=C(O)CCc1ccsc1
T/C (dose: 100.0 mg/kg/injection, schedule: Q01DX001 (ip), vehicle: saline): 94 % of control | T/C (dose: 200.0 mg/kg/injection, schedule: Q01DX001 (ip), vehicle: saline): 100 % of control | T/C (dose: 400.0 mg/kg/injection, schedule: Q01DX001 (ip), vehicle: saline): 102 % of control

C/C=C\S(=O)(=O)c1ccccc1
T/C (dose: 25.0 mg/kg/injection, schedule: Q04DX002 (ip), vehicle: Klucel (hydroxypropylcellulose) (HPC)): 98 % of control | T/C (dose: 50.0 mg/kg/injection, schedule: Q04DX002 (ip), vehicle: Klucel (hydroxypropylcellulose) (HPC)): 98 % of control | T/C [1]: 105 % of control | T/C [2]: 89 % of control
